According to patent US11795135B2, “Prostacyclin compounds, compositions and methods of use thereof” (Insmed Incorporated, priority 2013, dated 2023):
“Also recorded” adds a separate entry of the source.

Columns and labels:
EP2 prostanoid receptor = target: T1, EP2 prostanoid receptor (Homo sapiens, UniProt P43116); experiment: GloSensor cAMP assay in CHO-K1 cells co-transfected with the EP2 receptor; type: cell-based; conditions: for Max cAMP level (Fold): CHO-K1 cells
T1 construct: host or cells: CHO-K1
Excerpt: cAMP is a second messenger involved in signal transduction of G-protein coupled receptors (GPCRs) acting through Gα-s and Gα-i proteins. Because the treprostinil receptor is a GPCR, the assay provides an indication of whether the respective prostacyclin compound (or metabolite thereof) binds its receptor and activates the GPCR cell signaling cascade. The GloSensorTM assay harnesses a genetically modified form of firefly luciferase into which a cAMP-binding protein moiety has been inserted. Upon binding of cAMP, a conformational change is induced leading to increased light output. The EP2 prostanoid receptor was co-transfected with the GloSensorTM plasmid (Promega) into CHO-K1 cells as follows. CHO-K1 cells were harvested when the monoloayer was at 50-90% confluence. First, cells were washed with 5 mL PBS. […] The media was aspirated, and the cell pellet was resuspended in 10 mL of growth media. Cell number was determined using a hemacytometer. Each well of a culture treated 96 well flat bottom plate (Costar, Cat #: 3917) was seeded with 1×10^4 cells per 100 μL antibiotic-free growth media. […] For small scale transfections of up to 20 wells, the pGLoSensor-22F cAMP plasmid (Promega, Cat #: E2301) (2 μg): (EP2) (10 ng) (Origene, Cat #: SC126558):pGEM-3Zf(+) (10 ng) (Promega, Cat #: P2271) ratio was diluted to a final concentration of 12.6 ng/μL (total plasmid) in Opti-MEM I reduced-serum medium (Life Technologies, Cat #: 1985062). Next, 6 μL of FuGENE HD transfection reagent (Promega, Cat #: E2311) was added to 160 μL of diluted plasmid and mixed carefully by gentle pipetting. The complex was incubated at room temperature for 0 to 10 minutes, and then 8 μL of the complex was added per well of a 96 well white assay plate (Costar, Cat #: 3917) and gently mixed without disturbing the cell monolayer. […] Following incubation, cells were treated and analyzed. For larger scale transfections, the aforementioned steps were scaled up accordingly, and cells were frozen following the last incubation. In order to prepare frozen transfected CHO-K1 cells, the media was aspirated from culture flasks and cells were rinsed with 5 mL PBS. […] Cell number was determined using a hemacytometer. The media was aspirated, and the cell pellet was resuspended in freezing media (Millipore, cat #: S-002-5F) at 2.5×10^6 cells/vial. Transfected cells were incubated overnight at -80° C. before transfer to liquid nitrogen for long term storage. […] In preparation for cAMP measurement, the cells were equilibrated with the GloSensor cAMP reagent prior to treatment. For equilibration, the medium was carefully removed from the individual well. Next, 100 μL of equilibration medium ([…] of Glosensor Reagent stock solution (Promega, Cat #: E291), 10% FBS (Hyclone, Cat #: SH30071.03) and 88% CO2 independent medium (Life Technologies, Cat #: 18045088)) was added per well of the 96-well plate, and added to the side of each well. The plate was then incubated for 2 hours at room temperature. A first pre-read measurement was taken using a microplate reader (MicroLumat Plus). Plates were incubated for an additional 10 minutes at room temperature, followed by a second pre-read measurement. […] Following treatment, each plate was read every 5 minutes for the duration of the assay using a microplate reader (MicroLumat Plus). In order to determine the fold change in cAMP relative to the control, the transfection efficiency was first determined by dividing the second pre-read measurement by the average of the corresponding pre-read measurements. Next, the normalized relative light units (RLUs) of the samples were determined by dividing the plate read measurement by the transfection efficiency. The fold change in cAMP relative to the control was then determined by dividing the normalized RLU of the samples by the normalized RLU of the control. The cAMP assay was validated using free treprostinil. […] Luminescence was then measured at room temperature. […]

[1] = Treprostinil pharmacokinetics in anaesthetised, ventilated rats after nebulized dosing; type: in vivo, rat; conditions: nebulized TRE solution
Procedure: Male Sprague Dawley rats were anaesthetised and prepared with endotracheal tube for ventilation. The right femoral vein was cannulated to facilitate blood collections. Terminal lung samples were taken for analysis only 6 hours after dosing. […] Systemic blood pressure (mSAP), heart rate (HR), and arterial oxygen saturation (SaO2). Physiologic parameters were measured during normoxia (fraction of inspired oxygen [FrO2]=0.21, SaO2≈90%) and for 2 to 3 hours during hypoxia (FrO2=0.10, SaO2≈50%).

[2] = dog, in vivo
Procedure: Twelve beagle dogs of either sex were randomly assigned to different inhaled doses of treprostinil in PBS or the compound of Formula (A) wherein
Formulations were nebulized with an Aeroneb nebulizer (MMAD: 2.5-4 μm) delivered into a 500 ml expansion chamber. Formulations were nebulized for 2 min at ventilator settings of 90 ml/breath, 15 breaths/min (delivered volume=2.7 L) and collected on a filter. Drug amount (m) on the filter was measured by HPLC to calculate the concentration of drug delivered through the ventilator circuit (μg/L).
Dosimetry was performed in propofol-anesthetized dogs in which nebulized drugs were introduced into a mixing chamber interposed on the inspiratory limb of a canine respirator. Technical trials were performed before each experiment to measure the concentration of drug (μg/L) delivered for each breath. The inhaled drug dose (μ/kg) was calculated using the formula: Inhaled Drug Dose (μg/kg)=Drug Conc. (μg/L)×Minute Ventilation (L/min.)×Time (min.)/Body Weight (kg). […] Clinical signs were monitored over this 72 hr. period.
Dosimetry was performed in propofol-anesthetized, artificially ventilated dogs in which nebulized drugs were introduced into a mixing chamber interposed on the inspiratory limb of the respirator. […] Clinical signs (cough, rapid shallow breathing, emesis and pale gums) were also monitored.

[3] = system: Cough Reflex in Guinea Pigs; experiment: Cough reflex in guinea pigs (whole body plethysmograph); type: in vivo, guinea pig
Procedure: T623 has the following components:
Aerosols were generated with an Ultra-Neb Pro nebulizer (nebulizer output 0.36 mL/min.) that was mixed with inspired air delivered at a rate of 2 L/min. The PBS or drugs were delivered for 10 min. and the number of coughs recorded during and for 20 min. after the delivery. Coughs were detected by visual observations, plethysmograph recordings and cough sounds.

[4] = Tolerability and pharmacokinetics in rats, T748 inhaled for 14 consecutive days; type: in vivo, rat; conditions: T748, 0.6-18 μg/kg
Procedure: Body weights were recorded daily and organ weights (lungs, heart, liver) were measured 24 hr. after the last drug dose.

[5] = Treprostinil alkyl ester conversion to treprostinil in rat lung tissue homogenate; type: in vitro ADME; conditions: 37° C., 200 nM, 4 hours, 10 mg/mL of protein
Procedure: (§1) Treprostinil alkyl ester conversion to treprostinil was also measured in the presence of rat, dog and monkey lung tissue homogenate at 37° C. Here, data were calculated based on fit of exponential increase to the maximum (experiments performed in duplicate). The results of this study are provided below in Table 2A and FIG. 37. […] Both FIG. 37 experiments (left and right graphs) were performed in duplicate and the lines represent nonlinear exponential regression assuming 1 phase decay.

[6] = Treprostinil alkyl ester conversion to treprostinil in monkey lung tissue homogenate; type: in vitro ADME; conditions: 37° C., 200 nM, 4 hours, 10 mg/mL of protein
Procedure: as §1

[7] = system: Rat alveolar NR8383 cells; experiment: NR8383 cell proliferation assay (Presto Blue); type: cell-based; conditions: unformulated alkyl esters, 72 hour incubation
Procedure: Rat alveolar NR8383 cells were harvested when the monolayer was 50-90% confluent (use passage 5-11). Because the NR8383 cells include both adherent and non-adherent cells, media was transferred to a 50 mL Falcon tube. To obtain the cells remaining in the flask, 2 mL of plain media was added, and the remaining cells were scraped out of the 75 cm^2 flask with a cell scraper and added to the 50 mL tube. […] SH30071.03)+1×Pen-Strep (Life Technologies, cat #: 15410-122)). Cell number was determined using a hemacytometer. […] Measurements and calculations were made as described above for the CHO-K1 cells.

[8] = Treprostinil alkyl ester conversion to treprostinil in dog lung tissue homogenate; type: in vitro ADME; conditions: 37° C., 200 nM, 4 hours, 10 mg/mL of protein
Procedure: as §1

CHO-K1 cells = experiment: CHO-K1 cell proliferation assay (Presto Blue); conditions: unformulated alkyl esters, 48 hour incubation
Procedure: CHO-K1 cells were harvested when the cell monolayer was 50-90% confluent (use passage 4-11). Media was aspirated out of the flask, and cells were rinsed with 2 mL of F12 media. Next, 1 mL of pre-warmed (37° C.) 0.25% trypsin-EDTA (Life Technologies, Cat #: 25300054) was added, and cells were dislodged from the flask by tapping it on the side. Complete growth media (F12 (Life Technologies, Cat #: 31765092)+10% FBS (Hyclone, Cat #: SH30071.03)+1× Pen-Strep (Life Technologies, cat #15140-122) was then added at a volume of 10 mL. Cells were centrifuged at 250×g for 5 minutes at room temperature, and the media was aspirated. The cell pellet was resuspended in 10 mL complete growth media. Cell number was determined using a hemacytometer. Cells were then seeded at 2000 cells per well of a 96-well plate in 100 μL of complete growth media. The plate was incubated overnight at 37° C. and 5% CO2 in a water-jacketed incubator.
The next day, 80 μL of fresh complete media was added to each well, and CHO-K1 cells were challenged with treprostinil compound and composition treatments. The working solutions were prepared at 10× concentration, and following 2 fold serial dilutions, 20 μL aliquots were added per well to arrive at a final 1× concentration. Following a 48 hour incubation at 37° C. and 5% CO2 in a water-jacketed incubator, the inhibitory effect on cell proliferation was determined. Plates were analyzed using 20 μL of Presto Blue reagent (Life Technologies, cat #: A13262) per well. The reagent was mixed, and plates were incubated for 1 hour at 37° C. and 5% CO2 in a water-jacketed incubator. Plates were read using either a CytoFluor Series 4000 (PerSeptive BioSystems) or Synergy Neo microplate reader (BioTek) with emission λ: 590 nm and excitation λ: 560 nm.
at concentrations ranging from 0.55 μM to 125 μM. Following a 48 hour incubation period, the inhibitory effect of the treprostinil derivative compositions on cell proliferation was determined.
C2, C3, C4, C5, C6, C8, C10 or Cu straight chain alkyl, at dosages ranging from 0.098 μM to 25 μM. Following a 48 hour incubation period, the inhibitory effect on cell proliferation was determined.
Following a 72 hour incubation period, the inhibitory effect on cell proliferation was determined. Following a 48 hour incubation period, the inhibitory effect on cell proliferation was determined.
Similarly, CHO-K1 cells were challenged with the treprostinil compositions T612 (R2=C2), T613 (R2=C8) at concentrations ranging from 1.41 μM to 180 μM.

[9] = nebulized concentration of 30 μg/mL

T1 sequence (P43116 whole entry): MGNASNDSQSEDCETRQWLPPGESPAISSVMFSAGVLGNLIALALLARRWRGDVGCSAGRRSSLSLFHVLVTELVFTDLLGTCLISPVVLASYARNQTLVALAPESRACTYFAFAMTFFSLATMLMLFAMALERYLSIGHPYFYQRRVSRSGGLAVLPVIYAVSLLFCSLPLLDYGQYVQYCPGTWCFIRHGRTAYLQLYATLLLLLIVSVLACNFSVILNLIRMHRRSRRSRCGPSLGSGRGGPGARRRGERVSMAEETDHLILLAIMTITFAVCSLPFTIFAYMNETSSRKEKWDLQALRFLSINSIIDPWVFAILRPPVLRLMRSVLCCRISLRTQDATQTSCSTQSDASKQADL

## CCCCC[C@H](O)CC[C@@H]1[C@H]2Cc3cccc(OCC(=O)O)c3C[C@H]2C[C@H]1O [Treprostinil, (1R,2R,3aS,9aS)-[[2,3,3a,4,9,9α-hexahydro-2-hydroxy-1-[(3S)-3-hydroxyoctyl]-1H-benz[f]inden-5-yl]oxy]acetic acid]
EP2 prostanoid receptor; 10 μM, composition, FIG. 3A
  cAMP levels sustained for: not exhibited
EP2 prostanoid receptor; Effect of nebulization (FIG. 6), head prints (5 μM)
  Max cAMP level (Fold): ~15 Fold
EP2 prostanoid receptor; cAMP response in CHO-K1 cells, 4.5 hr incubation
  EC50: 0.2 µM
EP2 prostanoid receptor; compositions shown in FIG. 3, 8 hours time course
  Max cAMP level (Fold): ~16 Fold
EP2 prostanoid receptor; compositions shown in FIG. 4, 5 μM, 8 hours time course
  Max cAMP level (Fold): ~14 Fold
[1]
  time beyond which measurable levels of TRE were not seen in the blood plasma: ≤ 4 h
[2]
  period over which plasma levels of treprostinil were sustained: disappeared within a few hours
[3]; 1-300 μg/ml tested
  exposure concentration consistently evoking cough: ≥ 30 µg/mL
[3]; [9]
  cough bouts: 1-4
  cough response: consistent cough in 7 of 7 guinea pigs
[3]; nebulized concentration of 30 μg/mL, 10 min delivery + 20 min
  total number of coughs: 36±9 coughs

## CCCCCCCCCCCCCCCCOC(=O)COc1cccc2c1C[C@H]1C[C@@H](O)[C@H](CC[C@@H](O)CCCCC)[C@H]1C2 [Compound C16-TR, hexadecyl-treprostinil]
EP2 prostanoid receptor; kinetic profile, 10 μM and 5 μM, FIG. 21
  ranking of activity of the treprostinil compounds: C12-TR>C14-TR>5-nonanyl-TR>C16-TR
[4]
  tolerability, body weights and organ weights: no tolerability issues or significant changes (relative to PBS) in body weights and organ weights; also recorded: well tolerated with no evidence of body weight and organ weight change

## CCCCCCCCOC(=O)COc1cccc2c1C[C@H]1C[C@@H](O)[C@H](CC[C@@H](O)CCCCC)[C@H]1C2 [Compound C8-TR, treprostinil octyl ester]
[5]
  Rate of treprostinil alkyl ester conversion: 32.5 nmOL/h * g of protein
[6]
  Rate of treprostinil alkyl ester conversion: 17.3 nmOL/h * g of protein
[7]
  Effect on cell proliferation, NR8383 Cells (0.195 μM-25 μM): showed some inhibition of cell proliferation
[8]
  Rate of treprostinil alkyl ester conversion: 49.8 nmOL/h * g of protein
CHO-K1 cells
  Effect on cell proliferation, CHO-K1 Cells (0.195 μM-25 μM): showed inhibition of cell proliferation

## CCCCCCCCCCCCOC(=O)COc1cccc2c1C[C@H]1C[C@@H](O)[C@H](CC[C@@H](O)CCCCC)[C@H]1C2 [Compound C12-TR, dodecyl-treprostinil]
[5]
  Rate of treprostinil alkyl ester conversion: 1.1 nmOL/h * g of protein
[6]
  Rate of treprostinil alkyl ester conversion: 0.6 nmOL/h * g of protein
[7]
  Effect on cell proliferation, NR8383 Cells (0.195 μM-25 μM): No detectable cell inhibition
[8]
  Rate of treprostinil alkyl ester conversion: 2.2 nmOL/h * g of protein
CHO-K1 cells
  Effect on cell proliferation, CHO-K1 Cells (0.195 μM-25 μM): No detectable cell inhibition
